We go through eleven compounds from patent publication US11739063B2, “DREADD actuators” (The United States of America, as represented by the …, priority 2018, dated 2023).

Series [1] concerns the target T1, hM3Dq (Homo sapiens, UniProt P20309, A239G/Y149C). As to the kind of experiment: Calcium accumulation assay (GCaMP6f) in HEK293 cells with hM3Dq. As to conditions: for hM3Dq activation (fluorescence, calcium accumulation): cells with hM3Dq versus cells without DREADDs.
Experimental: The changes in fluorescence were read every 18 seconds for 5 minutes.
In series [2] the target is T2, hM4Di (Homo sapiens, UniProt P08173, A203G/Y113C).
T2 sequence (P08173 1-479 Y113C/A203G): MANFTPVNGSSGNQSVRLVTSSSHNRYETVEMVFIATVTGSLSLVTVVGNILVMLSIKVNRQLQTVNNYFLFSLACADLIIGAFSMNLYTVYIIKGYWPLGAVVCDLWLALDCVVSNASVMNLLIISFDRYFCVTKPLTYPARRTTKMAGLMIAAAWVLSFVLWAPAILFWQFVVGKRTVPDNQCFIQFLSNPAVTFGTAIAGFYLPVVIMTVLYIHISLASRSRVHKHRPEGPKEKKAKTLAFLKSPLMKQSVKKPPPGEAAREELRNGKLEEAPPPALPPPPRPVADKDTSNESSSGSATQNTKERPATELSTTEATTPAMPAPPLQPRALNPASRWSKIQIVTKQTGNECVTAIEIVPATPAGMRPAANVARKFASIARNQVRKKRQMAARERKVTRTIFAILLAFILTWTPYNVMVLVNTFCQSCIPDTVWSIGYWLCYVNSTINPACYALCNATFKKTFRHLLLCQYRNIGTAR
As to the kind of experiment: hM4Di-driven inhibition of light-evoked neuronal activation. As to conditions: 0.1 mg/kg. It is filed as in vivo.

In series [3] the target is T3, hM4Di (Gi1) (Homo sapiens, UniProt P08173, A203G/Y113C).
T3 construct: host or cells: HEK-293
T3 sequence (P08173 1-479 Y113C/A203G): T2 sequence (P08173 1-479 Y113C/A203G)
As to the kind of experiment: BRET assay of Gi1 activation in HEK-293 cells with hM4Di. As to conditions: for EC50: BRET change 5 minutes after addition; for Gi1 activation (BRET ratio): cells with hM4Di versus cells without DREADDs. It counts as cell-based. How it is done:
(§1) Bioluminescence resonance energy transfer (“BRET”) assays were performed to detect receptor ligand-induced Gi/o protein activation. […] Forty-eight hours after transfection cells were harvested, washed and resuspended in phosphate-buffered saline (“PBS”). Approximately 200,000 cells/well were distributed in 96-well plates, and 5 μM Coelenterazine H (substrate for luciferase) was added to each well.
(§2) Results were calculated for the BRET change (BRET ratio for the corresponding compound minus BRET ratio in the absence of the compound) 5 minutes after the addition of the compounds.
A general note: Bioluminescence resonance energy transfer reports proximity on the nanometre scale.

For series [4], the target named is T2, hM4Di. As to the kind of experiment: Radioligand binding assay, [3H]clozapine competition, hM4Di membranes. The note with it: HEK-293 membranes, 2.5 nM [3H]clozapine, Cheng-Prusoff. On the set-up: host or cells: HEK-293. How it is done: (§3) HEK-293 cells were transfected with 5 μg/dish of pAAV plasmids encoding for hM3Dq (available from Addgene, Cambridge, Mass., plasmid #89149), hM4Di (available from Addgene, Cambridge, Mass., plasmid #89150) or a control vector and harvested 48 hours after transfection. […] The protein was quantified by the bicinchoninic acid method. […] Microscint-20 scintillation liquid ([…]) was added to the filter plates, plates were incubated overnight at room temperature and radioactivity counts were determined in a MICROBETA^2™ (PerkinElmer, Waltham, Mass.) plate counter with an efficiency of 41%. Competition curves were fitted to a one binding site model and Ki values were calculated using the Cheng-Prusoff equation.

Series [5] addresses T4, hM4Di (Go1) (Homo sapiens, UniProt P08173, A203G/Y113C).
T4 construct: host or cells: HEK-293
T4 sequence (P08173 1-479 Y113C/A203G): T2 sequence (P08173 1-479 Y113C/A203G)
As to the kind of experiment: BRET assay of Go1 activation in HEK-293 cells with hM4Di. It is filed as cell-based. The note with it: for EC50: BRET change 5 minutes after addition; for Go1 activation (BRET ratio): cells with hM4Di versus cells without DREADDs. How it is done: as §1, §2

Series [6] concerns the target T1, hM3Dq. As to the kind of experiment: Radioligand binding assay, [3H]clozapine competition, hM3Dq membranes. On the set-up: host or cells: HEK-293. The note with it: for Ki: HEK-293 membranes, 2.5 nM [3H]clozapine, Cheng-Prusoff; for Binding to the tested DREADDs (in words): hM3Dq and hM4Di. How it is done:
as §3

In series [7] the test system is DREADDs (hM3Dq, hM4Di) and endogenous clozapine-binding sites. In words: Autoradiography, [3H]clozapine displacement in brain sections of wild-type and transgenic DREADD mice. As to conditions: about 3.5 nM [3H]clozapine, WT. How it is done:
Flash frozen brain tissue was sectioned (20 μm) on a cryostat and thaw mounted onto ethanol-washed glass slides. […] Following incubation, the slides were washed with an incubation buffer for 5 mins (2×) followed by a 30 second dip in ice-cold deionized H2O. The slides were then air-dried, placed in a […]™ (GE Healthcare, UK) autoradiography cassette, covered with a BAS-TR2025 Storage Phosphor Screen (GE Healthcare, UK), exposed for 3-5 days, and imaged using a phosphorimager.

Series [8] deals with D1-hM3Dq, D1-hM4Di or WT mice. As to the kind of experiment: FDG-PET brain metabolic mapping (DREAMM). It counts as in vivo. How it is done:
The study was set up as follows. Mice (D1-hM3Dq, D1-hM4Di or WT littermates) were habituated to experimenter handling and fasted 16 hours before the experiment. On the day of the experiment, mice received an IP injection of vehicle (1 ml/kg) and were placed back into their home cages. Ten minutes later, mice were injected (IP) with 11 MBq of 2-deoxy-2-[^18F]fluoro-D-glucose (FDG, Cardinal Health, Westmont, Ill.) and placed back into their home cages. After 30 minutes, mice were anesthetized with 1.5% isoflurane, placed on a custom-made bed of a NANOSCAN small animal PET/CT scanner (Mediso Medical Imaging Systems) and scanned for 20 min on a static acquisition protocol, followed by a CT scan. […] In all cases, the PET data were reconstructed and co-registered to an MRI template as described above. Voxel-based repeated measures with Student's t-test comparing baseline to drug were performed, and the resulting parametric images were filtered for statistically significant (p<0.05) clusters larger than 100 contiguous voxels. All statistical parametric mapping analyses were performed using MATLAB R2016 (Mathworks, Chicago, Ill.) and SPM12 (University College London).

Series [9] concerns mice with D1-hM3Dq receptors. In words: Locomotor activity assay (open-field test). As to conditions: 0.01, 0.1, 1 mg/kg intraperitoneal; compared with clozapine. It is filed as in vivo. How it is done: Transgenic male and female mice (25-30 g, offspring of D1-Cre (heterozygous)×R26-hM3Dq/mCitrine (heterozygous) crossing) either heterozygous for both loci (CRE+, het het) or wild type for D1-Cre (CRE−, wt het) were tested for locomotor activity. The mice were injected (intraperitoneal) with the indicated dose of clozapine, compound I(g), or vehicle (buffered saline).

Entries after “also recorded” stand apart in the source; their conditions may differ. Where two headings read alike, the source gives them in different places.

T1 sequence (P20309 whole entry Y149C/A239G): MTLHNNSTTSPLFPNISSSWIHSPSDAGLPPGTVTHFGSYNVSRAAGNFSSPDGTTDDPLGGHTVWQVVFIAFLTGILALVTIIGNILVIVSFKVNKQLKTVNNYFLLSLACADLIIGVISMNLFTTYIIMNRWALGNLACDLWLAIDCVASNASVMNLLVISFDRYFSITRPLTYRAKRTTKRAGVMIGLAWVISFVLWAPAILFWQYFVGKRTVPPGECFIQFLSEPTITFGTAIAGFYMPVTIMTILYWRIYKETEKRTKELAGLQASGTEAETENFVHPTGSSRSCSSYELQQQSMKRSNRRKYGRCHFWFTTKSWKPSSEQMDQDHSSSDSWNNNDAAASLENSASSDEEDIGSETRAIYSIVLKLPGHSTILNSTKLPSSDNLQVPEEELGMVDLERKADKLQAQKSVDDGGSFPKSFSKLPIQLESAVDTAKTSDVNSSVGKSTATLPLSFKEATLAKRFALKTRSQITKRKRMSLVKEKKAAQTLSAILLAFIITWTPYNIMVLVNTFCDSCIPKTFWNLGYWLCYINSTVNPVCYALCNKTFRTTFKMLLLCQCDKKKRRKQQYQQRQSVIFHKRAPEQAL

The EC50 is the concentration giving half of the maximal effect. In general, Ki refers to the dissociation constant of the complex between target and ligand, obtained from inhibition or displacement. For the compound `CCN1CCN(C2=Nc3cc(Cl)ccc3Nc3c(F)cccc32)CC1` [Compound I(h), 8-Chloro-11-(4-ethylpiperazin-1-yl)-4-fluoro-5H-dibenzo[b,e][1,4]diazepine], the results for the EC50 in series [1], in [3] and in series [5] were 2.64 nM, 0.073 nM and 0.14 nM, respectively. Also, the “hM3Dq activation (fluorescence, calcium accumulation)” value in series [1] was “effective at activating hM3Dq”. In addition, the “Inhibition of light-evoked neuronal activation” value in [2] is “rapid and potent hM4Di-driven inhibition”. In [3], the “Gi1 activation (BRET ratio)” value is given as “activate Gi1”. Also, the inhibitory constant (Ki) in series [4] came to 3.6 nM; in series [6] it was 1.9 nM. In series [5], the “Go1 activation (BRET ratio)” value is given as “activate Go1”. The “Binding to the tested DREADDs (in words)” value in series [6] is on record as “especially effective at binding the tested DREADDs”. Besides, the “Displacement of [3H]clozapine binding” value in series [7] (at 10 nM) is “selectively displaced [^3H]clozapine binding to DREADDs but not to endogenous sites”; in series [7] (at 1 μM) it was “completely displaced [^3H]clozapine binding to both DREADDs and endogenous clozapine-binding sites”. Further, the “Brain metabolism change (DREAMM)” value in series [8] (D1-hM3Dq mice, 0.1 mg/kg IP) is listed as “decreased metabolism”; in series [8] (D1-hM4Di mice, 0.1 mg/kg IP), “increased metabolism”. Also, in series [8] (WT mice, 0.1 mg/kg IP), the “Brain metabolic changes (FDG-PET)” value was “no significant brain metabolic changes”. Besides, the “Reduction of locomotor activity (distance traveled)” value in series [9] is listed as “more effective than clozapine at reducing locomotor activity”.

Regarding `CCN1CCN(C2=Nc3ccccc3Nc3ccc(F)cc32)CC1` [Compound I(b), 11-(4-Ethylpiperazin-1-yl)-2-fluoro-5H-dibenzo[b,e][1,4]diazepine], the Ki in series [4] is 118 nM; in [6], 33.5 nM.

On to `CCN1CCN(C2=Nc3cc(F)ccc3Nc3ccccc32)CC1` [Compound I(f), 11-(4-Ethylpiperazin-1-yl)-8-fluoro-5H-dibenzo[b,e][1,4]diazepine], for which the Ki in series [4] worked out at 12.9 nM; in series [6], 23.7 nM.

As to `CCN1CCN(C2=Nc3cc(Cl)ccc3Nc3cc(F)ccc32)CC1` [Compound I(c), 8-Chloro-11-(4-ethylpiperazin-1-yl)-3-fluoro-5H-dibenzo[b,e][1,4]diazepine], the Ki was found to be 51.3 nM in series [4] and 51.4 nM in series [6].

Turning to `CCN1CCN(C2=Nc3cc(Cl)ccc3Nc3ccc(F)cc32)CC1` [Compound I(a), 8-chloro-11-(4-ethylpiperazin-1-yl)-2-fluoro-5H-dibenzo[b,e][1,4]diazepine], the Ki in series [4] stood at 23.5 nM; in series [6] it was 10.5 nM. Besides, the “Recruitment of whole-brain functional networks (FDG-PET)” value in [8] (D1-hM3Dq and D1-hM4Di mice, 0.1 mg/kg, n=4 per condition) was “opposing and differential recruitment of whole-brain functional networks”.

For the compound `CCN1CCN(C2=Nc3ccccc3Nc3cccc(F)c32)CC1` [Compound I(e), 11-(4-Ethylpiperazin-1-yl)-1-fluoro-5H-dibenzo[b,e][1,4]diazepine], the Ki in [4] is 14.2 nM; in series [6], 4.8 nM.

With `CCN1CCN(C2=Nc3cc(Cl)ccc3Nc3cccc(F)c32)CC1` [Compound I(g), 8-Chloro-11-(4-ethylpiperazin-1-yl)-1-fluoro-5H-dibenzo[b,e][1,4]diazepine], in [1], the EC50 was determined as 5.15 nM and the “hM3Dq activation (fluorescence, calcium accumulation)” value is “effective at activating hM3Dq”. Also, in [3], the EC50 worked out at 0.24 nM and the “Gi1 activation (BRET ratio)” value is “activate Gi1”. Besides, the affinity in [4] corresponds to a Ki of 8.7 nM. For the same compound, in series [5], a half-maximal response (EC50) required 0.8 nM and the “Go1 activation (BRET ratio)” value is recorded as “activate Go1”. Also, in [6], the Ki was 1.7 nM and the “Binding to the tested DREADDs (in words)” value is given as “especially effective at binding the tested DREADDs”. Moreover, in series [9], the “Reduction of locomotor activity (distance traveled)” value was “more effective than clozapine at reducing locomotor activity”.

For `c1ccc2c(c1)N=C(N1CCNCC1)c1ccccc1N2` [Compound 21, reference compound], the results for the EC50 in [1], in [3] and in series [5] were 1.66 nM, 2.7 nM and 1.7 nM, respectively. In addition, in series [8] (WT mice, 1 mg/kg), the “Brain metabolic activity (FDG-PET)” value is given as “significant changes in brain metabolic activity; also recorded: decreased metabolic activity of multiple networks”.

As to `[2H]C([2H])(C)N1CCN(C2=Nc3cc(Cl)ccc3Nc3ccccc32)CC1` [Compound 13, reference compound], the EC50 in [1] was determined as 1.43 nM; in series [3], 0.067 nM; in series [5] it was 0.063 nM.

`C[N+]1([O-])CCN(C2=Nc3cc(Cl)ccc3Nc3ccccc32)CC1` [CNO, clozapine n-oxide, reference compound]: the EC50 in [1] (read-out: EC50 value for hM3Dq, mean, calcium accumulation, fluorescence) was determined as 11.3 nM; in [3], 13 nM; in series [5], 3.1 nM.

Turning to `CCN1CCN(C2=Nc3ccccc3Nc3cc(F)ccc32)CC1` [Compound I(d), 11-(4-Ethylpiperazin-1-yl)-3-fluoro-5H-dibenzo[b,e][1,4]diazepine], the figures for the Ki in series [4] and in series [6] were 149 nM and 101 nM, respectively.
